The source of these data is doi:10.64898/2025.12.10.692519v1 (biorxiv, 2025).

Holding throughout (test): cells
Experiment [1] concerns 786-O. Particulars: Homo sapiens, 786-0, 144 h, read-out: Lexibulin (CYT997).
The subject of experiment [2] is A-549. Conditions: Homo sapiens, A549, 144 h.
Experiment [3] has as its system ACHN. Particulars: Homo sapiens, ACHN, 144 h, read-out: Lexibulin (CYT997).
For experiment [4], the system named is CCRF-CEM. Particulars: Homo sapiens, CCRF-CEM, 144 h.
Experiment [5] deals with DU-145. Particulars: Homo sapiens, DU-145, 144 h.
The subject of experiment [6] is H-1299. Particulars: Homo sapiens, NCI-H1299, 144 h.
In experiment [7] the test system is HEP-2. Particulars: Homo sapiens, HEp-2, 144 h.
For experiment [8], the system named is HGC-27. Particulars: Homo sapiens, HGC-27, 144 h.
Experiment [9] relates to HL-60. Conditions: Homo sapiens, HL-60, 144 h.
Experiment [10] relates to HRT-18. Conditions: Homo sapiens, HRT-18, 144 h.
In experiment [11] the test system is HUT-78. Conditions: Homo sapiens, HuT78, 144 h.
Experiment [12] has as its system Karpas-299. Conditions: Homo sapiens, KARPAS-299, 144 h.
The test system of experiment [13] is LnCaP. Particulars: Homo sapiens, LNCaP, 144 h, read-out: Lexibulin (CYT997).
The test system of experiment [14] is MCF-7. Conditions: Homo sapiens, MCF7, 144 h, read-out: Lexibulin (CYT997).
Experiment [15] deals with MDA-MB-468. Particulars: Homo sapiens, MDA-MB-468, 144 h, read-out: Lexibulin (CYT997).
Experiment [16] relates to MESSA. Particulars: Homo sapiens, MES-SA, 144 h, read-out: Lexibulin (CYT997).
Experiment [17] relates to MOLM-14. Conditions: Homo sapiens, MOLM-14, 144 h, read-out: Lexibulin (CYT997).
The test system of experiment [18] is NALM-6. Particulars: Homo sapiens, NALM-6, 144 h.
Experiment [19] deals with NOMO-1. Particulars: Homo sapiens, NOMO-1, 144 h, read-out: Lexibulin (CYT997).
The test system of experiment [20] is PANC-1. Particulars: Homo sapiens, PANC-1, 144 h.
Experiment [21] concerns PC-3. Conditions: Homo sapiens, PC-3, 144 h, read-out: Lexibulin (CYT997).
Experiment [22] has as its system PLC-PRF5. Particulars: Homo sapiens, PLC-PRF-5, 144 h.
The test system of experiment [23] is REC-1. Conditions: Homo sapiens, Rec1, 144 h.
The test system of experiment [24] is THP-1. Conditions: Homo sapiens, THP-1, 144 h, read-out: Lexibulin (CYT997).
Experiment [25] relates to Tov21G. Conditions: Homo sapiens, TOV21G, 144 h, read-out: Lexibulin (CYT997).
Experiment [26] relates to U-118. Conditions: 144 h.
The subject of experiment [27] is U87-MG. Particulars: Homo sapiens, U-87 MG, 144 h.
For experiment [28], the system named is A4573. Conditions: A4573, 144 h, read-out: Unesbulin (PTC-596).
Experiment [29] has as its system SK-N-MC. Conditions: Homo sapiens, SK-N-MC, 144 h, read-out: Unesbulin (PTC-596).
For experiment [30], the system named is SW-872. Particulars: Homo sapiens, SW872, 144 h, read-out: Unesbulin (PTC-596).
Experiment [31] has as its system U2OS. Particulars: Homo sapiens, U2OS, 144 h, read-out: Unesbulin (PTC-596).
Experiment [32] has as its system WEHI-164. Conditions: Mus musculus, WEHI-164, 144 h, read-out: Unesbulin (PTC-596).
The test system of experiment [33] is MESSA. The arrangement: species or system MES-SA/Mx2. Particulars: Homo sapiens, MES-SA, read-out: MES-SA.
Experiment [34] has as its system CHRF. On the set-up: species or system CMK. Conditions: 72 h, read-out: Doxorubicin (IC50 nM).
The test system of experiment [35] is CMK. On the set-up: species or system CHRF. Particulars: Homo sapiens, 72 h, read-out: Doxorubicin (IC50 nM).

Where two headings read alike, the source gives them in different places.

As to `CCC[C@H](Nc1nc(-c2ccc(NC(=O)NCC)c(OC)c2)ncc1C)c1cccnc1` [Lexibulin], the IC50 in experiment [1] came to 165 nM; in [2] (read-out: Lexibulin (CYT997)), 21 nM; in [3] it was 36 nM; in [4] (read-out: Lexibulin (CYT997)), 8 nM; in experiment [5] (read-out: Lexibulin (CYT997)) it was 32 nM; in [6] (read-out: Lexibulin (CYT997)), 7 nM. For the same molecule, the IC50 stood at 16 nM in experiment [7] (read-out: Lexibulin (CYT997)); 8 nM in experiment [8] (read-out: Lexibulin (CYT997)); 8 nM in [9] (read-out: Lexibulin (CYT997)); 31 nM in experiment [10] (read-out: Lexibulin (CYT997)); 6 nM in experiment [11] (read-out: Lexibulin (CYT997)); 4 nM in experiment [12] (read-out: Lexibulin (CYT997)). For the same molecule, the IC50 in experiment [13] stood at 52 nM; in experiment [14], 12 nM; in experiment [15], 685 nM; in experiment [16], 24 nM; in experiment [17] it was 45 nM; in [18] (read-out: Lexibulin (CYT997)), 9 nM. In addition, the IC50 in experiment [19] turned out to be 280 nM; in experiment [20] (read-out: Lexibulin (CYT997)) it was 13 nM; in [21] it was 142 nM; in experiment [22] (read-out: Lexibulin (CYT997)), 25 nM; in experiment [23] (read-out: Lexibulin (CYT997)), 10 nM; in experiment [24], 9 nM. For the same molecule, the IC50 in experiment [25] amounted to 13 nM; in experiment [26] (read-out: Lexibulin (CYT997)), 13 nM; in [27] (read-out: Lexibulin (CYT997)) it was 20 nM.

Take `Cc1nc2ccc(F)cc2n1-c1nc(N)c(F)c(Nc2ccc(C(F)(F)F)cc2)n1` [Unesbulin]: the IC50 was 13 nM in [2] (read-out: Unesbulin (PTC-596)); 21 nM in experiment [28]; 27 nM in experiment [4] (read-out: Unesbulin (PTC-596)); 17 nM in experiment [5] (read-out: Unesbulin (PTC-596)); 5 nM in [6] (read-out: Unesbulin (PTC-596)); 10 nM in experiment [7] (read-out: Unesbulin (PTC-596)). Further, the IC50 in experiment [8] (read-out: Unesbulin (PTC-596)) turned out to be 9 nM; in experiment [9] (read-out: Unesbulin (PTC-596)), 48 nM; in [10] (read-out: Unesbulin (PTC-596)), 11 nM; in [11] (read-out: Unesbulin (PTC-596)), 20 nM; in experiment [12] (read-out: Unesbulin (PTC-596)), 34 nM; in experiment [18] (read-out: Unesbulin (PTC-596)) it was 30 nM. Besides, the IC50 came out at 21 nM in experiment [20] (read-out: Unesbulin (PTC-596)); 25 nM in experiment [22] (read-out: Unesbulin (PTC-596)); 17 nM in experiment [23] (read-out: Unesbulin (PTC-596)); 14 nM in experiment [29]; 18 nM in [30]; 33 nM in experiment [26] (read-out: Unesbulin (PTC-596)). Moreover, the IC50 in experiment [31] worked out at 12 nM; in experiment [27] (read-out: Unesbulin (PTC-596)) it was 11 nM; in [32], 31 nM.

As to `COc1cccc2c1C(=O)c1c(O)c3c(c(O)c1C2=O)C[C@@](O)(C(=O)CO)C[C@@H]3O[C@H]1C[C@H](N)[C@H](O)[C@H](C)O1` [doxorubicin], the figures for the IC50 in [33], in [34] and in experiment [35] were 71 ± 56 nM, 681 nM and 844 nM, respectively.
